Where a name gives a salt, the structure may show the parent alone.
Test system: HIV-1NL4.3
Assay: not given
Type: cell-based
Settings: 100 nM; CEM-GFP (FIG. 9)
Description: Cells were then treated with molecules at different concentrations.

Molecule	inhibition of replication of HIV-1NL4.3
COC(=O)CC[C@H](NC(=O)c1ccc(N(C)Cc2cnc3nc(N)nc(N)c3n2)cc1)C(=O)OC [MTX Dimethyl Ester]	inhibits replication of HIV-1NL4.3
[2H]C([2H])([2H])N(Cc1cnc2nc(N)nc(N)c2n1)c1ccc(C(=O)N[C@@H](CCC(=O)O)C(=O)O)cc1 [MTX-methyl-d3]	inhibits replication of HIV-1NL4.3

Same assay, conditions: CEM-GFP cells

Molecule	TI (Therapeutic index = CC50/IC50)
COC(=O)CC[C@H](NC(=O)c1ccc(N(C)Cc2cnc3nc(N)nc(N)c3n2)cc1)C(=O)OC [MTX Dimethyl Ester]	1675.3

Same assay, conditions: CEM-GFP cells; HIV-1NL4.3

Molecule	therapeutic index compared with MTX-HYD
COC(=O)CC[C@H](NC(=O)c1ccc(N(C)Cc2cnc3nc(N)nc(N)c3n2)cc1)C(=O)OC [MTX Dimethyl Ester]	higher therapeutic index than MTX-HYD

Same assay, conditions: CEM-GFP cells; HIV-1NL4.3 0.5 MOI; p24 ELISA 72 h post infection

Molecule	IC50 [µM]
MTX-d3 heptaglutamate	0.0779 ± 0.00242
COC(=O)CC[C@H](NC(=O)c1ccc(N(C)Cc2cnc3nc(N)nc(N)c3n2)cc1)C(=O)OC [MTX Dimethyl Ester]	0.0324 ± 0.00087
COC(=O)CCC(NC(=O)c1ccc(N(C)Cc2cnc3nc(N)nc(N)c3n2)cc1)C(=O)OC (stereo not drawn) [MTX-methyl-d3-Dimethyl Ester, Methotrexate-methyl-d3-Dimethyl ester]	0.0099 ± 0.00151
CN(Cc1cnc2nc(N)nc(N)c2n1)c1ccc(C(=O)N[C@@H](CCC(=O)O)C(=O)O)cc1 [MTX-methyl-d3]	0.0421 ± 0.00384

Test system: HIV-1NL4.3
Assay: microbe, parasite or virus in culture
Type: cell-based
Settings: 10 μM; HIV-1NL4.3 0.1 MOI; TZM-bl cells; luminescence 48 h
Description: TZM-bl cells were seeded at the density of 12,000-15,000 cells/well of 96 well plate with 100 μL DMEM (with 10% FBS) in each well. 12-hours post seeding, the media was replaced with fresh DMEM containing HTV-1NL4.3 at 0.1 MOI and cells were treated with different molecules independently at 10 μM working concentration. Cells were incubated in humidified CO2 incubator for 4-hours. After incubation, the media was replaced and cells were washed twice with incomplete DMEM and 100 μL of complete DMEM was added in each wells along with the molecules of interest and incubated at 37° C. in humidified CO2 incubator. 48-hours post incubation, the media was removed and cells were washed twice with 100 μL of 1×PBS. After washing, cells were lysed using cell culture lysis reagent and Steady-Glo substrate was added at 1:1 ration in each well. Luminescence was measured using Molecular Devices M5 (Table 2). % Inhibition was calculated using following formula and plotted.
[formula] (RLU=Relative Luminescence Unit)

Molecule	% Inhibition at 10 μM Concentration [%]
Cl.NCCCC(N)(C(=O)O)C(F)F (racemic) [DL-alpha-Difluoromethylornithine hydrochloride]	97.06
Nc1ccc(-c2nc3ccc(-c4nc5ccc(N)cc5[nH]4)cc3[nH]2)cc1 [RO 90-7501]	99.67
O=[N+]([O-])/C=C/c1ccc2c(c1)OCO2 [MNS]	99.63
CCCN1CCC[C@@H](c2cccc(O)c2)C1.Cl [S(−)-3PPP hydrochloride]	98.60
O=C(O)/C=C\C(=O)O.O=C1/C(=C/c2ccccc2)C[C@@]2(O)[C@H]3Cc4ccc(O)c5c4[C@@]2(CCN3CC2CC2)[C@H]1O5 [BNTX maleate salt hydrate]	99.26
CC(=O)OC[C@H]1O[C@@H]([S-])[C@H](OC(C)=O)[C@@H](OC(C)=O)[C@@H]1OC(C)=O.CCP(CC)CC.[Au+] [Auranofin]	96.08
CC(C)NC[C@@H](O)c1ccc(O)c(O)c1.O=C(O)C(O)C(O)C(=O)O [S(+)-Isoproterenol (+)-bitartrate]	97.10
COc1ccc(-c2cc3nccn3c(Nc3ncccc3C(N)=O)n2)cc1OC.Cl.O [BAY 61-3606 hydrochloride hydrate]	95.05
Cc1ccc(S(=O)(=O)N[C@@H](Cc2ccccc2)C(=O)CCl)cc1 [N-p-Tosyl-L-phenylalanine chloromethyl ketone]	98.76
CS(=O)(=O)c1cccc(CNc2nc(Nc3ccc4c(c3)CCC(=O)N4)ncc2C(F)(F)F)c1 [PF-573228]	97.23
Cn1c(=O)c(-c2c(Cl)cccc2Cl)cc2cnc(Nc3ccc(N4CCOCC4)cc3)nc21 [PD173952]	96.16
Nc1nc2c(ncn2CCOCP(=O)(O)O)c(=O)[nH]1 [PMEG hydrate]	99.36
COc1ccccc1CNCCCCCCNCCCCCCCCNCCCCCCNCc1ccccc1OC [Methoctramine tetrahydrochloride]	98.94
CC1=C(/C=C/C(C)=C/C=C/C(C)=C/C(=O)Nc2ccc(O)cc2)C(C)(C)CCC1 [Retinoic acid p-hydroxyanilide]	98.52
Oc1ccc(/C=C/c2ccc(/C=C/c3ccc(O)cc3)c(Br)c2)cc1 [K114]	96.16
O=C(Nc1cccc(C(=O)Nc2ccc(S(=O)(=O)O)c3cc(S(=O)(=O)O)cc(S(=O)(=O)O)c23)c1)Nc1cccc(C(=O)Nc2ccc(S(=O)(=O)O)c3cc(S(=O)(=O)O)cc(S(=O)(=O)O)c23)c1 [NF 023]	95.77
CC(C)[C@H]1c2ccc(F)cc2CC[C@@]1(CCN(C)CCCc1nc2ccccc2[nH]1)OC(=O)C1CC1 [NNC 55-0396]	97.75
O=c1oc(Cl)c(Cl)c2ccccc12 [Dichloroisocoumarin]	97.06
CC(C)NC[C@H](O)COc1cccc2ccccc12.Cl [(S)-Propranolol hydrochloride]	99.30
O=Nc1ccc2oc(=O)ccc2c1 [6-Nitroso-1,2-benzopyrone]	99.15
CCOC(=O)c1ncn2c1[C@@H]1CCCN1C(=O)c1cc(OC)ccc1-2 [L-655,708]	97.43
NC(Cc1cc(O)c(O)cc1O)C(=O)O (racemic) [6-Hydroxy-DL-DOPA]	96.67
CCc1ccccc1OC[C@@H](O)CN[C@H]1CCCc2ccccc21.O=C(O)C(=O)O [SR 59230A oxalate]	97.52
N[C@@H](Cn1oc(=O)[nH]c1=O)C(=O)O [(+)-Quisqualic acid]	99.30
CNCCNS(=O)(=O)c1cccc2cnccc12.Cl.Cl [H-8 dihydrochloride]	99.57

Same assay, conditions: Human immunodeficiency virus 1, TZM-bl, 48 h, read-out: % Inhibition at 10 μM Concentration

Molecule	inhibition at 10 µM [%]
N#CC(=C(/N)Sc1ccccc1N)/C(C#N)=C(\N)Sc1ccccc1N [U0126]	97.4
CNCCCC12CCC(c3ccccc31)c1ccccc12 [Maprotiline hydrochloride]	98.9
O=C1c2ccccc2C(=O)c2c(NCCc3ccc(O)cc3)ccc(NCCc3ccc(O)cc3)c21 [1,4-Bis[(p-hydroxyphenethyl)amino]-anthraquinone]	98.9

Same assay, conditions: Human immunodeficiency virus 1; 10 μM; HIV-1NL4.3 0.1 MOI; TZM-bl cells; luminescence 48 h; read-out: % Inhibition at 10 μM Concentration

Molecule	inhibition at 10 µM [%]
CC(C)(C)c1ccc(C(O)CCCN2CCC(C(O)(c3ccccc3)c3ccccc3)CC2)cc1 (stereo not drawn) [Terfenadine]	98.7
CCCCN(CC)c1nc(C)nc2c1c(C)cn2-c1c(C)cc(C)cc1C [CP-154526 hydrochloride]	97.1
COC(=O)C1=C(C)NC(C)=C(C(=O)OCCN(C)Cc2ccccc2)C1c1cccc([N+](=O)[O-])c1 (stereo not drawn) [Nicardipine hydrochloride]	99.6
N=C(N)N/N=C/c1c(Cl)cccc1Cl [Guanabenz acetate]	99.6
CN[C@@H]1C[C@@H](c2ccc(Cl)c(Cl)c2)c2ccccc21 [Indatraline hydrochloride]	97.4
O=C(O)C1=CC(=C(c2ccc(O)c(C(=O)O)c2)c2ccc(O)c(C(=O)O)c2)C=CC1=O [Aurintricarboxylic acid]	97.2
CCCCc1ncc(/C=C(\Cc2cccs2)C(=O)O)n1Cc1ccc(C(=O)O)cc1 [Eprosartan mesylate]	99.8
CC1=NN=C(c2ccc(N)cc2)c2cc3c(cc2C1)OCO3 [GYKI 52466 hydrochloride]	99.3
Oc1c2ccccc2c2c3c(cccc13)N=N2 [SP600125]	97.5
CC[C@@]1(O)C(=O)OCc2c1cc1n(c2=O)Cc2cc3c(CN(C)C)c(O)ccc3nc2-1 [Topotecan hydrochloride hydrate]	98.1
CC[N+](CC)(CC)CCOc1ccc(/C=C/c2ccccc2)cc1 [MG 624]	97.1
NC(=O)CN1CC(O)CC1=O (stereo not drawn) [Oxiracetam]	96.5
O=C1Cc2c([nH]c3ccc(Br)cc23)-c2ccccc2N1 [Kenpaullone]	98.7
CNCCC=C1c2ccccc2CCc2ccccc21 [Nortriptyline hydrochloride]	99.2
CCN(CC)CCOc1ccc(Nc2ncc3cc(-c4c(Cl)cccc4Cl)c(=O)n(C)c3n2)cc1 [PD-166285 hydrate]	97
CC(=O)O[C@]1(C(C)=O)CC[C@H]2[C@@H]3C=C(Cl)C4=CC(=O)[C@@H]5C[C@@H]5[C@]4(C)[C@H]3CC[C@@]21C [Cyproterone acetate]	98.5
OCCN1CCN(CCCN2c3ccccc3Sc3ccc(Cl)cc32)CC1 [Perphenazine]	99.6
Cc1ccc(-c2cc(C(F)(F)F)nn2-c2ccc(S(N)(=O)=O)cc2)cc1 [Celecoxib]	95.1
COc1cc2nc(N3CCN(C(=O)C4COc5ccccc5O4)CC3)nc(N)c2cc1OC (stereo not drawn) [Doxazosin mesylate]	100
CCN(CC)CCCC(C)Nc1c2ccc(Cl)cc2nc2ccc(OC)cc12 (stereo not drawn) [Quinacrine dihydrochloride]	100
O=C1c2c(O)ccc(O)c2C(=O)c2c(NCCNCCO)ccc(NCCNCCO)c21 [Mitoxantrone]	97.1
Cc1cnc(C(=O)NCCc2ccc(S(=O)(=O)NC(=O)NC3CCCCC3)cc2)cn1 [Glipizide]	98.5
CCCCNc1c(C(=O)OCC)c(C)nc2c1cnn2CC [Tracazolate]	99.1

Test system: CEM-GFP cells
Assay: MTT cell viability assay in CEM-GFP cells
Type: cell-based
Settings: concentration at which cell viability was 50%
Description: (a-b) CEM-GFP cells were treated with different concentrations of MTX-HYD and MTX and cytotoxicity was determined by MTT cell viability assay. […] (c-d) CEM-GFP cells were infected with 0.5 MOI (Multiplicity of infection) of HIV-1NL4.3 virus in presence of MTX-HYD or MTX. 72-hours post infection supernatant was collected and virus production was determined by p24 antigen capture ELISA.
Cytotoxicity of MTX-HYD and MTX and their analogues was determined by MTT cell proliferation assay kit, (Roche, Germany) as described earlier. Briefly, cells were seeded at the density of 25,000 cells/well in 96 well plate containing 100 μL of RPMI. Molecules at different concentration was added to the media and incubated in humidified CO2 incubator. Untreated cells were taken as negative control and DMSO treated cells were taken as vehicle control. 48-hours post incubation, 10 μL of MTT (5 mg/mL) was added in each well in dark and incubated at 37° C. for the formation of formazan crystals. 4-hours post incubation, the crystals were dissolved using 100 μL isopropanol and the absorbance was read at 570 nm.

Molecule	CC50 [µM]
MTX-d3 heptaglutamate	40.5 ± 3.43
COC(=O)CC[C@H](NC(=O)c1ccc(N(C)Cc2cnc3nc(N)nc(N)c3n2)cc1)C(=O)OC [MTX Dimethyl Ester]	54.3 ± 3.78
COC(=O)CCC(NC(=O)c1ccc(N(C)Cc2cnc3nc(N)nc(N)c3n2)cc1)C(=O)OC (stereo not drawn) [MTX-methyl-d3-Dimethyl Ester, Methotrexate-methyl-d3-Dimethyl ester]	47.3 ± 1.51
CN(Cc1cnc2nc(N)nc(N)c2n1)c1ccc(C(=O)N[C@@H](CCC(=O)O)C(=O)O)cc1 [MTX-methyl-d3]	46.4 ± 1.08

Reference: patent US12023336B2, “Antiviral drug compounds and composition thereof” (priority 2018, dated 2024)
